Measurements from patent US7250269B2, “Composition for assaying glycoprotein” (Asahi Kasei Pharma Corporation, priority 2001, dated 2007).
Where two headings read alike, the source gives them in different places.

What was measured:
Protease type-XXIV = assay: Screening of globulin component-selective protease inhibitors (HSA substrate with/without γ-globulin); format: biochemical, Bacillus; details: additive concentration 1.0%; control 23.8
Excerpt: Using protease type-XXIV (manufactured by Sigma-Aldrich Co.) having high reactivity with the HSA substrate solution, components that decrease the protease reaction with the above globulin substrate solutions were screened based on the HSA substrate solution.
In the R-1 proteolytic reagent, as the deoxycholic acid amide, bisgluconamidopropyldeoxycholamide was used; as the cholic acid amide, 3-[(3-cholamidopropyl)dimethvlammonio]propane sulfonic acid, 3-[(3-cholamidopropyl)dimethylammonio]-2-hydroxypropane sulfonic acid, or bisgluconamidopropylcholamide was used; as the quaternary ammonium salt, benzyltriethylan chloride or benzyltri-n-butylammonium chloride was used; and as quatemary ammonium salt-type cationic surfactant, lauryltrimethylammonium chloride or lauryldimethylamine oxide was used.
• 1. HSA substrate solution: Albumin Human: 40 mg/ml, GA %=10.5% [manufactured by Wako Pure Chemical Industries, Ltd., the albumin concentration in the substrate solution was assayed using an albumin assay kit (albumin II-HA Test Wako; manufactured by Wako Pure Chemical Industries, Ltd.). GA % was assayed using a glycated albumin analyzer (GAA-2000, manufactured by ARKRAY, Inc.). • 2. γ-globulin addition substrate solution, 17.0 mg/ml of γ-globulin [γ-Globulins Human (manufactured by Sigma-Aldrich Co.), Fructosamine value=34 μM] was added to the above HSA substrate solution. <Reaction Procedure>
Absorbances at a wavelength of 546 nm were measured before and after the addition of R-2. The difference of the two measurements was regarded as the absorbance change. The same procedure was conducted using distilled water instead of the substrate to prepare a blank sample. In addition, a reaction solution without the addition of the globulin-selective protease inhibitor was used as a control.
ΔA (HSA) was calculated by subtracting the absorbance change of the blank sample from the absorbance change obtained for the HSA substrate solution. ΔA(+γ-globulin) was calculated by subtracting the absorbance change of the blank sample from the absorbance change obtained for the substrate solution to which γ-globulin was added. Effect of γ-globulin addition=(ΔA(+γ-globulin)−ΔA(HSA))/ΔA(HSA)×100(%)

albumin = biological target: T1, albumin (Homo sapiens, UniProt P02768); assay: Albumin assay by BCP method after pretreatment with protein denaturing agent and/or compound having S—S bond; details: for albumin value by BCP method, sample GA: immunological method 8.1, no pretreatment 7.9; for albumin value by BCP method, sample NGA: immunological method 37.5, no pretreatment 36.1; for albumin value by BCP method, sample Blood serum of patients: immunological method 40.5, no pretreatment 36.2
T1 construct: from tissue; host or cells: human blood serum (healthy persons, patients; albumin purified with boric acid-immobilized resin)
Procedure: The following compounds 1)-9) were used as the protein denaturing agent and/or the compound having S—S bond in the R-1 pretreatment reagent. • 1) 6,6′-dithiodinicotinic acid: 100 mM • 2) 3,3′-dithiodipropionic acid: 100 mM • 3) 2,2′-dithiodibenzoic acid: 100 mM • 4) 4,4′-dithiodimorpholine: 100 mM • 5) DTNB (50 mM) • 6) DDD (33 mM) • 7) 2-PDS (25 mM) • 8) 4-PDS (50 mM) • 9) SDS (0.3%) • 1)-5) manufactured by Wako Pure Chemical Industries, Ltd. • 6)-9) manufactured by Dojindo Laboratories <Samples>
Glycated lbumin, non-glycated albumin, blood serum of healthy persons, and blood serum of patients were used as samples, and distilled water was used as a blank. Glycated albumin and non-glycated albumin were obtained from human blood serum, albumin was purified by known method and using a boric acid-immobilized resin.
2 μl of a sample was added to 160 μl of the pretreatment reagent incubated at 37° C. […] Absorbance at 600 nm was measured before the addition of the albumin coloring reagent and five minutes after the addition of the albumin coloring reagent. A calibration curve was prepared using distilled water and a sample with a known albumin concentration instead of the sample. A sample was separately assayed by an immune method using a latex reagent (LX reagent, Alb-II, manufactured by Eiken Chemical Co., Ltd.) as a control.

R-FOD-II = assay: Stabilization of enzyme reacting at least with glycated amino acid; format: biochemical; details: for stabilization effect on glycated amino acid assay reagent (relative sensitivity): without stabilizer 30%; for decrease in performance of glycated amino acid assay reagent: storage for four weeks at 37° C.; for storage stability effect: stored in a liquid state in a refrigerator
Procedure: 8 μl of a sample was added to 240 μl of the proteolytic reagent incubated at 37° C. […] A relative sensitivity for the experiment using the reagent containing a stabilizer to the experiment using the reagent not containing a stabilizer was calculated assuming that ΔA0 obtained using the reagent not containing a stabilizer and used without storing is 100%.

[1] = pretreatment reagent at concentration of b299
[2] = pretreatment reagent at concentration of b299, immunological method 43.0, no pretreatment 38.4
[3] = stored at 37° C. for two days, FIG. 6

T1 sequence (P02768 25-609): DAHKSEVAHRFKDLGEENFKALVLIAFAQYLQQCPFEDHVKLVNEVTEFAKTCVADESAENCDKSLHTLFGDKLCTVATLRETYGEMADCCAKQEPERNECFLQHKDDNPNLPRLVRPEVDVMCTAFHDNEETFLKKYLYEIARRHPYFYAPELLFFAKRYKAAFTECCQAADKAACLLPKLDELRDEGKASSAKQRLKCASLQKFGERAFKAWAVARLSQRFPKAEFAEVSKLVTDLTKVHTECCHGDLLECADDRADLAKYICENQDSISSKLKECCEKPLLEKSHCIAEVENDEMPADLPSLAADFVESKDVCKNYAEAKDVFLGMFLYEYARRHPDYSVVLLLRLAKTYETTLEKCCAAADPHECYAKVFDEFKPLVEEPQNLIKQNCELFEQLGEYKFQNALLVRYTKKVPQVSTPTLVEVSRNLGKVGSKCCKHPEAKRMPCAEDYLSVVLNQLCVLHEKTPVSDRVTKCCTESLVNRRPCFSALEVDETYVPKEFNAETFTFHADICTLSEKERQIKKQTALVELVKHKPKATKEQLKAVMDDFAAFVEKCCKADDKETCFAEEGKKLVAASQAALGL

albumin value by BCP method, sample GA (albumin; [1])	albumin value by BCP method, sample NGA (albumin; [1])	albumin value by BCP method, sample Blood serum of patients (albumin; [1])	stabilization effect on glycated amino acid assay reagent (relative sensitivity) (R-FOD-II; [3])	SMILES	further results
				C[C@H](CCC(=O)N(CCCNC(=O)[C@H](O)[C@@H](O)[C@H](O)[C@H](O)CO)CCCNC(=O)[C@H](O)[C@@H](O)[C@H](O)[C@H](O)CO)[C@H]1CC[C@H]2[C@@H]3CC[C@@H]4C[C@H](O)CC[C@]4(C)[C@H]3C[C@H](O)[C@]12C [N,N-Bis(3-D-gluconamidopropyl)deoxycholamido]	Effect of γ-globulin (%) (Protease type-XXIV): 19.9%
7.8	36.8	36.8		c1ccc(SSc2ccccn2)nc1 [Reagent 7, 2,2′-dithiopyridine]	effect of pretreatment on decreasing deviation from the immune method (albumin): particularly remarkable; albumin value by BCP method, sample Blood serum of healthy parsons (albumin; [2]): 38.9
			stabilization effect	CC(C)[C@H](N)C(=O)O [L-valine, L-Valine]	
				C[C@H](CCC(=O)N(CCCNC(=O)[C@H](O)[C@@H](O)[C@H](O)[C@H](O)CO)CCCNC(=O)[C@H](O)[C@@H](O)[C@H](O)[C@H](O)CO)[C@H]1CC[C@H]2[C@@H]3[C@H](O)C[C@@H]4C[C@H](O)CC[C@]4(C)[C@H]3C[C@H](O)[C@]12C [N,N-Bis(3-D-gluconamidopropyl)cholamido]	Effect of γ-globulin (%) (Protease type-XXIV): 21.0%
				CCCC[N+](CCCC)(CCCC)Cc1ccccc1.[Cl-] [Benzyltributylammonium chloride]	Effect of γ-globulin (%) (Protease type-XXIV): 15.1%
				C[N+](C)(C)Cc1ccccc1.[Br-] [Benzyltrimethylammonium bromide]	Effect of γ-globulin (%) (Protease type-XXIV): 23.1%
				C[C@H](CCC(=O)O)[C@H]1CC[C@H]2[C@@H]3[C@H](O)C[C@@H]4C[C@H](O)CC[C@]4(C)[C@H]3C[C@H](O)[C@]12C [Cholic acid]	Effect of γ-globulin (%) (Protease type-XXIV): 23.0%
				CC[N+](CC)(CC)Cc1ccccc1.[Cl-] [Benzyltriethylammonium chloride]	Effect of γ-globulin (%) (Protease type-XXIV): 16.5%
			stabilization effect	N[C@@H](CCC(=O)O)C(=O)O [L-glutamic acid, L-Glutamic acid]	
				C[N+](C)(C)Cc1ccccc1.[Cl-] [Benzyltrimethylammonium chloride]	Effect of γ-globulin (%) (Protease type-XXIV): 23.2%
7.7	38.0	35.0		O=C(O)c1ccccc1SSc1ccccc1C(=O)O [Reagent 3, 2,2′-dithiodibenzoic acid]	effect of pretreatment on decreasing deviation from the immune method (albumin): particularly remarkable; albumin value by BCP method, sample Blood serum of healthy parsons (albumin; [2]): 40.1
			stabilization effect	OC[C@H]1O[C@@](CO)(O[C@H]2O[C@H](CO)[C@@H](O)[C@H](O)[C@H]2O)[C@@H](O)[C@@H]1O [sucrose, Sucrose]	
7.9	35.7	37.0		O=C(O)CCSSCCC(=O)O [Reagent 2, 3,3′-dithiodipropionic acid]	albumin value by BCP method, sample Blood serum of healthy parsons (albumin; [2]): 37.9
			stabilization effect	OC[C@H]1O[C@H](O[C@H]2O[C@H](CO)[C@@H](O)[C@H](O)[C@H]2O)[C@H](O)[C@@H](O)[C@@H]1O [trehalose, Trehalose]	
			stabilization effect	O=C(O)[C@@H]1CCCN1 [L-proline, L-Proline]	
				CC(CCC(=O)NCCC[N+](C)(C)CC(O)CS(=O)(=O)[O-])C1CCC2C3C(O)CC4CC(O)CCC4(C)C3CC(O)C12C (stereo not drawn) [3-[3-cholamidopropyl)dimethylammonio]-2-hydroxypropane sulfonic acid]	Effect of γ-globulin (%) (Protease type-XXIV): 18.0%
7.5	36.2	36.2		c1cc(SSc2ccncc2)ccn1 [Reagent 8, 4,4′-dithiopyridine]	effect of pretreatment on decreasing deviation from the immune method (albumin): particularly remarkable; albumin value by BCP method, sample Blood serum of healthy parsons (albumin; [2]): 38.8
			stabilization effect	C[C@H](N)C(=O)O [L-alanine, L-Alanine]	decrease in performance of glycated amino acid assay reagent (R-FOD-II): almost no decrease in performance; storage stability effect (R-FOD-II): one or more years
			stabilization effect	NC(=O)CC[C@H](N)C(=O)O [L-glutamine, L-Glutamine]	
7.6	36.9	37.7		Oc1ccc2cc(SSc3ccc4cc(O)ccc4c3)ccc2c1 [Reagent 6, 2,2′-dihydroxy-6,6′-dinaphthyl disulfide]	effect of pretreatment on decreasing deviation from the immune method (albumin): particularly remarkable; albumin value by BCP method, sample Blood serum of healthy parsons (albumin; [2]): 39.1
			stabilization effect	OC[C@@H](O)[C@@H](O)[C@H](O)[C@@H](O)CO [sorbitol, Sorbitol]	
			stabilization effect	OC[C@@H](O)[C@@H](O)[C@H](O)[C@H](O)CO [mannitol, Mannitol]	
7.7	39.5	31.3		C1CN(SSN2CCOCC2)CCO1 [Reagent 4, 4,4′-dithiodimorpholine]	effect of pretreatment on decreasing deviation from the immune method (albumin): particularly remarkable; albumin value by BCP method, sample Blood serum of healthy parsons (albumin; [2]): 41.3
			stabilization effect	CNCC(=O)O [sarcosine, Sarcosine]	decrease in performance of glycated amino acid assay reagent (R-FOD-II): almost no decrease in performance; strength of stabilization effect (R-FOD-II; [3]): particularly strong stabilization effect; storage stability effect (R-FOD-II): one or more years
8.7	38.4	35.5		O=C(O)c1cc(SSc2ccc([N+](=O)[O-])c(C(=O)O)c2)ccc1[N+](=O)[O-] [Reagent 5, 5,5′-dithiobis-(2-nitrobenzoic acid)]	effect of pretreatment on decreasing deviation from the immune method (albumin): particularly remarkable; albumin value by BCP method, sample Blood serum of healthy parsons (albumin; [2]): 38.3

SMILES	albumin value by BCP method, sample GA (albumin; [1])	albumin value by BCP method, sample NGA (albumin; [1])	albumin value by BCP method, sample Blood serum of patients (albumin; [1])	stabilization effect on glycated amino acid assay reagent (relative sensitivity) (R-FOD-II; [3])	further results
[Cl-].[Cl-].[Mg+2] [magnesium chloride, Magnesium chloride]				stabilization effect	
NCCCC[C@H](N)C(=O)O [L-lysine, L-Lysine]				stabilization effect	
N.N.O=S(=O)(O)O [ammonium sulfate, Ammonium sulfate]				stabilization effect	
CCCCCCCCCCCCOS(=O)(=O)[O-].[Na+] [Reagent 9, sodium lauryl sulfate]	7.8	37.4	40.7		albumin value by BCP method, sample Blood serum of healthy parsons (albumin): 43.7; effect of pretreatment on decreasing deviation from the immune method (albumin): particularly remarkable
O=C(O)c1ccc(SSc2ccc(C(=O)O)cn2)nc1 [Reagent 1, 6,6′-dithiodinicotinic acid]	7.6	35.6	36.7		albumin value by BCP method, sample Blood serum of healthy parsons (albumin): 38.2
